Source: US8071795B2, “HIF inhibitors” (Emory University, priority 2005, dated 2011)

Columns and labels:
[1] = system: topoisomerase II; assay: kinetoplast DNA decatenation assay; format: biochemical
Protocol: FIG. 15 illustrates that HIF inhibitor F2 (Psammaplin analogue) but not KCN1 inhibits topoisomerase II activity. Purified topo II activity with F2 or KCN1 was analyzed under normoxia using kDNA decatenation assay. To examine the activity, 1% agarose gel with ethidium bromide was used and it enabled to detect catenated kDNA and decatenated kDNA. In lanes 5 and 9, inhibition of topoisomerase II activity was detected as evidenced by the presence of catenated DNA.
Finally, an experiment focused on whether some of the HIF inhibitors might have an effect on topoisomerase function was performed. It has been reported in the literature that some HIF inhibitors may act via a topoisomerase-dependent mechanism (Rapisarda A et al 2004, Cancer Res 64-1475-82). KCN1 and psammaplin analogue F2 (FIG. 8) were tested and their inhibitory effect on topoisomerase II using a kinetoplast DNA decatenation assay (FIG. 15) was examined.

[2] = experimental LogP; format: physicochemical
From the text: Four grams of KCN1 have been synthesized for initial PK and anti-tumor studies. FIG. 10 illustrates an illustrative embodiment of a method for forming KCN1.

[3] = system: HIF; assay: microscopy of HIF location and HRE-luciferase activity in LN229 cells; format: cell-based, human
From the text: To examine whether KCN1 might interfere with the ability of HIF to translocate to the nucleus, its location was examined by microscopy in LN229 cells containing a stably integrated HRE-luciferase reporter construct. Under hypoxia KCN1 inhibits HIF accumulation and no HIF is seen in the nucleus or cytoplasm. […] Measurement of HIF-induced luciferase activity (lower panel) confirms that HIF is transcriptionally active in the presence of KCN1 in the COCl2 treated cells.
(§1) To gain insight into the possible mechanism of action of KCN1 a number of experiments listed below were performed. First, an experiment focused on whether KCN1 might block HIF at the mRNA or protein level was performed. To examine whether KCN1 might interfere with HIF-1 alpha mRNA synthesis or stability, Northern blots were performed. […] Second, an experiment focused on whether KCN1 might interfere with the ability of HIF to translocate to the nucleus was performed by examining its location by microscopy in LN229 cells. Under hypoxia KCN1 inhibits HIF accumulation, confirming the Western blot results and no HIF is seen in the nucleus or cytoplasm.
In addition, experiments focused on whether HIF present in the nucleus of the KCN1 and CoCl2 treated cells was transcriptionally active were performed. […]

[4] = biological target: HIF-1/HRE pathway; assay: LN229-HRE-AP hypoxia-inducible alkaline phosphatase reporter bioassay; format: cell-based, human
Protocol: Genetically engineered LN229 cells (a human glioma cell line) which stably express the alkaline phosphatase reporter gene under the control of six copies of a hypoxia-responsive element was used to identify small-molecule inhibitors of the HIF-1/HRE pathway. The engineered LN229 cell line is disclosed in U.S. Provisional Patent Application No. 60/235,283, which is incorporated by reference in its entirety herein. Cells were seeded at 40,000 cells per well in 96-well plates. Compounds of interest with 2,2-dimethylbenzopyran motifs were added and the plates were incubated under hypoxia (1% O2, 5% CO2 and 94% N2) at 37° C. for 24 h. Cells were then washed with phosphate-buffered saline and incubated with p-nitrophenyl phosphate at 37° C. for 30 min. The reaction was terminated by adding 3 N NaOH and the plates were read for absorbance at 405 nm. The anti-HIF-1/HRE activity of each compound was quantified as the decrease of percentage of alkaline phosphatase (AP) activity compared to the untreated control cells. […]
To screen for small molecule HIF-1 pathway inhibitors, a cell-based assay was established by stably transfecting a glioma cell line with a hypoxia-inducible alkaline phosphatase (AlkPhos) expression vector (LN229-HRE-AP). Exposure of the cells to hypoxia (1% O2) induced reporter gene expression, which could be detected and quantitated by a […] reaction. […]

[5] = tolerability in injected animals; format: in vivo; conditions: it. and iv. (up to 100 mg/kg)
Protocol: (§2) KCN1 was formulated in Cremaphor/EtOH for mice delivery and determined empirically (i.e., without prior under-standing of its in vivo pharmacology) whether preliminary anti-tumorigenic effects could be observed. […] (up to 100 mg/kg) injected animals.

[6] = system: LN229 glioma xenograft; assay: sc LN229 glioma xenograft growth; format: in vivo, nude mice
Protocol: FIG. 20 illustrates that KCN1 inhibits sc LN229 glioma xenograft growth. LN-229 (5×10^6) was implanted in both flanks of nude mice (8/group) and 1 week later started intraperitoneal injections of KCN1 (60 mg/kg; 5 days/week). FIG. 20(A) illustrates tumor volume over time as measured with a caliper.
as §2

[7] = system: HIF-1α; assay: Western blot of total protein levels in LN229 cell extracts; format: cell-based, human
Protocol: (§3) FIG. 11 illustrates an analysis of specificity of KCN1. LN229 cells were pre-treated with KCN1 (25 uM) for 1 h and then put in 1% O2 for […]. Cell extracts were analyzed by Western blot for levels of total proteins (FIG. 11 (A)) and phospho-proteins by multiplex Western FIG. 11 (B)). It should be noted that a strong increase of HIF-1α levels under hypoxia is inhibited by KCN1.
(§4) The above extracts were further analyzed to detect changes in the activity states of key signal transduction proteins by multiplex Western (Kinexus). This method allows the simultaneous screening of 37 different phospho-proteins involved in key cell signaling pathways. […] KCN1 inhibits only HIF-1α under hypoxic conditions (FIG. 11 (C)).

[8] = system: HIF-1 alpha mRNA; assay: Northern blot of HIF-1 alpha mRNA; format: cell-based; conditions: with or without KCN1 treatment
Protocol: To examine whether KCN1 might interfere with mRNA synthesis or stability Northern blots were performed.
as §1

[9] = PK study in U87MG-EGFRvIII brain tumor model, HPLC; format: in vivo, mice; conditions: iv. 35 mg/kg; 6, 18 and 24 hrs
Protocol: FIG. 18 illustrates a PK study of KCN1 in a brain tumor model. FIG. 18(A) illustrates MRI of U87MG-EGFRvIII grown in mice brain. FIG. 18(B) illustrates the kinetics of KCN1 accumulation in normal and tumoral brain after iv. injection at 35 mg/kg.
The BBB may constitute an obstacle to drug delivery. To examine whether KCN1 would reside in the brain over a longer period of time and whether it would accumulate in higher amounts in the tumor versus normal brain we carried out a preliminary PK experiment. Nude mice carrying U87MG-EGFRvIII tumors were injected iv. with KCN1 and sacrificed at 6, 18 and 24 hrs. KCN1 concentration in the brain tumor and contra-lateral normal brain was performed by HPLC.

[10] = system: phospho-proteins involved in key cell signaling pathways; assay: multiplex Western (Kinexus) of phospho-proteins in LN229 cell extracts; format: cell-based, human; conditions: 27 of 37 phospho-proteins
Protocol: as §3, §4

[11] = system: Akt (Serine 473 phosphorylation), PI3K signaling pathway; assay: Akt phosphorylation in response to IGF1; format: cell-based; conditions: 1, 3, and 6 hrs
Protocol: In addition, experiments focused on whether HIF present in the nucleus of the KCN1 and CoCl2 treated cells was transcriptionally active were performed. […] Third, an experiment focused on whether KCN1 might interfere with HIF synthesis through the PI3 kinase/Akt/mTOR pathway that controls mRNA translation was performed. The effects of KCN1 on the phosphorylation of Akt in response to growth factor IGF1 (insulin growth factor 1) were examined. […] This finding might have therapeutic implications independently of the activities of KCN1 on HIF.

[12] = system: HIF-dependent luciferase activity; assay: pharmacodynamic BLI study in LN229 HRE-luciferase glioma xenografts; format: in vivo, mouse
Protocol: FIG. 19 illustrates a pharmacodynamic study of KCN1 in nu/nu mouse bearing LN229HRE-luci-ferase gliomas. KCN1 (2 mg) dissolved in DMSO was injected in the right hind tumor, and DMSO control in the left hind tumor. The mouse was injected with D-luciferin and imaged by BLI before FIG. 19 (C) and 5 & 28 hrs after injection. It should be noted strong reduction in HIF-dependent luciferase activity in right hind tumor at 5 hrs and partial recovery of HIF signaling after 28 hrs. (n=2).
It is well appreciated that the efficacy of anti-cancer agents in rodents is an imprecise predictor of the success of these drugs in clinical trials. Therefore, evaluating the molecular and mechanistic end points of drug treatment is an important complementary approach to early pre-clinical studies. With this in mind, we sought to determine whether our lead HIF-1 pathway inhibitor (KCN1) can reduce HIF activity in a glioma xenograft model. In a pilot study, we used a mouse bearing 4 xenografts of LN229 cells containing a stable HIF responsive luciferase reporter (size-matched medium sized tumors in the back and small ones in the front). The HIF-dependent luciferase activity in the tumors was detected by non-invasive BLI. As expected, the larger hind tumors produced the strongest luciferase signal, likely due to the increase in the hypoxic volume. […]

With `COc1cc([C@@H]2c3cc4c(cc3[C@@H](O[C@@H]3O[C@@H]5CO[C@@H](C)O[C@H]5[C@H](O)[C@H]3O)[C@H]3COC(=O)[C@H]23)OCO4)cc(OC)c1O` [etoposide, reference compound] the “topo II activity” value ([1]; 100 uM) was “inhibitory activity observed”.

For `COc1ccc(S(=O)(=O)N(Cc2ccc3c(c2)C=CC(C)(C)O3)c2ccccc2)cc1OC` [KCN1], the “experimental LogP” value [2] was 3.9, the “luciferase activity of HRE-luciferase reporter” value ([3]; KCN1 and CoCl2 treated cells) was “remained active” and the “nuclear accumulation of HIF” value ([3]; LN229 cells, CoCl2 conditions) was “does not interfere with nuclear accumulation”. For the same molecule, the IC50 ([4]; LN229-HRE-AP cells, hypoxia 1% O2) was ~4 µM, the “inhibitory activity relative to initial HIF-inhibitor 85D5R” value ([4]; SAR, modifications in regions I and II) was “improved acitivities” and the toxicity [5] was “no apparent toxicity was observed”. For the same molecule, the “weight of dissected tumors, fold less than control” value ([6]; 60 mg/kg intraperitoneal, 5 days/week, at termination) was ~6 fold, the tumor growth ([6]; Cremaphor/EtOH formulation) was “strong and sustained inhibition of tumor growth” and the “HIF-1α protein level under hypoxia” value ([7]; LN229 cells, KCN1 25 uM, 1% O2, 5 hrs) was “strong anti-HIF-1α activity is detected”. For the same molecule, the “stabilization of HIF-1alpha under normoxia” value ([7]; induced by CoCl2, desferroxiamine or MG132) was “is not inhibited”, the “HIF-1alpha mRNA levels” value [8] was “remained constant” and the “distribution between brain tumor and contra-lateral normal brain” value [9] was “preferentially accumulates in and is retained in the brain tumor”. For the same molecule, the “topo II activity” value ([1]; 5-25 uM) was “did not inhibit”, the “effects on phospho-proteins with detectable phosphorylation” value [10] was < 1.5 fold and the “IGF1-induced phosphorylation of Akt on Serine 473” value [11] was “not inhibited”. The phospho-Akt level [11] was “increase in phospho-Akt is observed”, the “reduction of HIF-dependent luciferase activity in injected tumor” value ([12]; 2 mg in DMSO intratumoral, 5 hrs) was > 90% and the “HIF-dependent luciferase activity in injected tumor” value ([12]; after 28 h) was “recovered”.
